In this test the target is T1, human wild-type (WT)-pendrin (Homo sapiens, UniProt O43511).
T1 construct: expressed in transfected cells
T1 sequence (O43511 1-780): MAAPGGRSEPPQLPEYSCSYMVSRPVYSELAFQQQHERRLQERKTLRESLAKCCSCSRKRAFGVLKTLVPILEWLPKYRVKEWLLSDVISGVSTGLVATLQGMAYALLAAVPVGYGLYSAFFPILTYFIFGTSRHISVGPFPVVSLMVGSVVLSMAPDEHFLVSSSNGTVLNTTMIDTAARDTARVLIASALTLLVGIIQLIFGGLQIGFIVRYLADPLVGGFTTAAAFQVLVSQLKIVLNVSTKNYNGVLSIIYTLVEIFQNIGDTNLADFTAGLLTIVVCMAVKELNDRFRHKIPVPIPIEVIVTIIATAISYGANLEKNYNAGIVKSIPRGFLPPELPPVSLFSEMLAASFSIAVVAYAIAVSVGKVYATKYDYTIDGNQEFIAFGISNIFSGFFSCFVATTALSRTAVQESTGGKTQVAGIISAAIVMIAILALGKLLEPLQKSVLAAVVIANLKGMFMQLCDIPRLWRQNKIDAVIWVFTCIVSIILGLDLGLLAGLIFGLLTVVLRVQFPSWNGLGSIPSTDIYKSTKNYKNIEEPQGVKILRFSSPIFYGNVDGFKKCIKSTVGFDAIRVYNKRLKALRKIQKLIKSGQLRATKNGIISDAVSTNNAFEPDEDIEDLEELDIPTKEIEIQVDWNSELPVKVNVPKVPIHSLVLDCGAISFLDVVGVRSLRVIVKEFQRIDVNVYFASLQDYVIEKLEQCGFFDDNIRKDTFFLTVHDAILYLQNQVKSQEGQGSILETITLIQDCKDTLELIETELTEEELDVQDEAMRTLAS
Description: Pendrin-mediated Cl^−/I^− exchange activity, YFP fluorescence in CHO-K1 cells. In kind it is cell-based. The following applies: for inhibition at 30 µM: read-out: Pendrin inhibitory activity at 30 μM (%); for IC50: compounds showing pendrin inhibitory activity of 50% or more at 30 μM, read-out: IC50. Here is the method:
Chinese hamster ovary (CHO)-K1 cells were maintained in a DMEM medium containing 10% fetal bovine serum (FBS), 100 units/ml penicillin and 100 100 μg/ml streptomycin. CHO-K1 cells were stably transfected with pcDNA3.1 encoding halide sensor YFP-H148Q/I152L/F46L and human wild-type (WT)-pendrin. For distribution of primary culture of human nasal cavity epithelium (HNE) cells, passage-2 cells were seeded into transwell-transparent culture inserts with a pore size of 0.45 μm (Costar Co., Cambridge, MA) at a density of 2×10^5 cells/cm^2. The cells were maintained in a 1:1 mixture of Dulbecco's modified Eagle's medium (Lonza, Walkersville, MD) and bronchial epithelial growth medium (Lonza) supplemented with the following growth factors according to the manufacturer's instructions. After immersing the cells for the first 7 days, they were exposed to the apical air interface for the remainder of the culture period. After establishment of the air-liquid interface, the cells were used between 14 and 21 days. At all stages of culture, the cells were maintained at 37° C. under 5% CO2 in an air incubator.
CHO-K1 cells expressing human WT pendrin and YFP-F46L/H148Q/I152L were plated on a 96-well microplate at a density of 2×10^4 cells per well and cultured for 48 hours. Each well of the cell cultured 96-well plate was washed with PBS of 200 μL twice and was filled with HEPES buffer solution of 50 μL, respectively. […] After culturing at 37° C. for 10 minutes, the 96-well plate was positioned on FLUOstar Omega microplate reader (BMG Labtech, Ortenberg, Germany) for fluorescence analysis. By continuously (400 ms per point) recording fluorescence for 1 second (base line), each well was individually analyzed for pendrin-mediated I^− inflow, and then at 1 second, 50 μL of NaI-substituted HEPES buffer solution (NaI replacing NaCl) was added using a liquid injector and the YFP fluorescence was recorded for 5 seconds. The initial iodide inflow rate was determined from the initial slope of fluorescence by nonlinear regression, after injection the iodide (See FIG. 1).
For measurement of Cl^−/I^− exchange activity, YFP fluorescence was measured in pendrin and halide sensor YFP expressing CHO-K1 cells. Each well of the cell cultured 96-well plate was washed with PBS of 200 μL twice, and was filled with HEPES buffer solution (140 mM NaCl, 5 mM KCl, 1 mM MgCl2, 1 mM CaCl2, 10 mM glucose and 10 mM HEPES (pH 7.4)), respectively. […] After culturing at 37° C. for 10 minutes, the 96-well plate was positioned on FLUOstar Omega microplate reader (BMG Labtech, Ortenberg, Germany) for fluorescence analysis.
By continuously (400 ms per point) recording fluorescence for 1 second (base line), each well was individually analyzed for pendrin-mediated I^− inflow, and then at 1 second, 50 μL of NaI-substituted HEPES buffer solution (140 mM NaI, 5 mM KCl, 1 mM MgCl2, 1 mM CaCl2, 10 mM glucose and 10 mM HEPES (pH 7.4)) was added using a liquid injector and the YFP fluorescence was recorded for 5 seconds. The initial iodide inflow rate was determined from the initial slope of fluorescence by nonlinear regression, after injection the iodide.

Like-named read-outs stand apart in the source and are kept apart here.

`Cc1ncsc1C=C1N=C(c2ccc(Br)cc2)OC1=O` [F22, 2-(4-Bromophenyl)-4-((4-methylthiazol-5-yl)methylene)oxazol-5(4H)-one]: the inhibition at 30 µM (CHO-K1, 30 μM) was 2.4%.
The same measure, in the same setting: with `Cc1ncsc1C=C1N=C(c2ccc(-c3ccccc3)cc2)OC1=O` [F24, 2-([1,1′-biphenyl]-4-yl)-4-((4-methylthiazol-5-yl)methylene)oxazol-5 (4H)-one] the figure was 3.6%; with `CC(C)(C)c1ccc(C2=NC(=Cc3ccc(OCc4ccccc4)cc3)C(=O)O2)cc1` [F64, 4-(4-(Benzyloxy)benzylidene)-2-(4-(tert-butyl)phenyl)oxazol-5 (4H)-one], 2.8%.
For orientation: IC50 means the concentration that gives 50% inhibition. As to `CC(C)c1ccc(C2=NC(=Cc3cccs3)C(=O)O2)cc1` [F46, 2-(4-Isopropylphenyl)-4-(thiophen-2-ylmethylene)oxazol-5(4H)-one], the half-inhibitory concentration (IC50) is 22.7 ± 2.48 µM. Moreover, the inhibition at 30 µM (CHO-K1, 30 μM) stood at 53.8%.
The like results for `CC(C)(C)c1ccc(C2=NC(=Cc3ccsc3)C(=O)O2)cc1` [F9, 2-(4-(tert-butyl)phenyl)-4-(thiophen-3-ylmethylene)oxazol-5 (4H)-one] were, in that order, 28.7 ± 2.25 µM and 52.5%.
For `Cc1ccc(C2=NC(=Cc3cn(-c4ccccc4)nc3-c3ccccc3)C(=O)O2)cc1` [F83, 4-((1,3-Diphenyl-1H-pyrazol-4-yl)methylene)-2-(p-tolyl)oxazol-5(4H)-one], the inhibition at 30 µM (CHO-K1, 30 μM) was 2.4%.
For `CC(=O)Nc1ccc(C2=NC(=Cc3ccc(N(C)CCCl)cc3)C(=O)O2)cc1` [F86, N-(4-(4-(4-((2-chloroethyl)(methyl)amino)benzylidene)-5-oxo-4,5-dihydrooxazol-2-yl)phenyl)acetamide], the inhibition at 30 µM (CHO-K1) was determined as 3.3%.
Regarding `O=C(O)C(=Cc1ccco1)NC(=O)c1ccc(C(F)(F)F)cc1` [G18, 3-(Furan-2-yl)-2-(4-(trifluoromethyl)benzamido)acrylate], the inhibition at 30 µM (CHO-K1, 30 μM) was found to be 2.7%.
In the case of `CCCCc1ccc(C(=O)NC(=Cc2ccc[nH]2)C(=O)O)cc1` [G22, 2-(4-Butylbenzamido)-3-(1H-pyrrol-2-yl)acrylate], the IC50 turned out to be 5.3 ± 0.58 µM. Further, under “CHO-K1, 30 μM”, the inhibition at 30 µM amounted to 89.2%.
The like results for `CCCCCc1ccc(C(=O)NC(=Cc2ccco2)C(=O)O)cc1` [G35, 3-(Furan-2-yl)-2-(4-pentylbenzamido)acrylate] were, in that order, 6.1 ± 0.88 µM and 94%.
With `O=C1OC(c2ccc(N3CCCC3=O)cc2)=NC1=Cc1cccs1` [F98, 2-(4-(2-oxopyrrolidin-1-yl)phenyl)-4-(thiophen-2-ylmethylene)oxazol-5 (4H)-one], the inhibition at 30 µM (CHO-K1, 30 μM) turned out to be 3.3%.
With `COc1ccc2cc(C=C3N=C(c4ccccc4)OC3=O)c(=O)[nH]c2c1` [F74, 4-((7-Methoxy-2-oxo-1,2-dihydroquinolin-3-yl)methylene)-2-phenyloxazol-5(4H)-one], where the note is “CHO-K1, 30 μM”, the inhibition at 30 µM was 2.4%.
In the case of `CC(C)(C)NS(=O)(=O)c1ccc(C2=NC(=Cc3cccs3)C(=O)O2)cc1` [F35, N-(tert-butyl)-4-(5-oxo-4-(thiophen-2-ylmethylene)-4,5-dihydrooxazol-2-yl)benzene sulfonamide], the IC50 came out at 11.6 ± 1.25 µM. Moreover, the inhibition at 30 µM (CHO-K1, 30 μM) came out at 87.2%.
`CC(=O)Nc1ccc(C2=NC(=Cc3ccc(-n4cncn4)cc3)C(=O)O2)cc1` [F134, N-(4-(4-(4-(1H-1,2,4-thiazol-1-yl)benzylidene)-5-oxo-4,5-dihydrooxazol-2-yl)phenyl)acetamide]: the inhibition at 30 µM (CHO-K1, 30 μM) is 3.4%.
Same read-out and setting: with `O=C1OC(c2ccc3c(c2)OCO3)=NC1=Cc1cccs1` [F97, 2-(Benzo[d][1,3]dioxoyl-5-yl)-4-(thiophen-2-ylmethylene)oxazol-5(4H)-one] the figure was 2.9%.
For `Cc1ccc(C2=NC(=Cc3cccs3)C(=O)O2)s1` [F111, 2-(5-methylthiophen-2-yl)-4-(thiophen-2-ylmethylene)oxazol-5 (4H)-one], the inhibition at 30 µM (CHO-K1, 30 μM) was found to be 30.8%.
On to `CCCCOc1ccc(C2=NC(=Cc3cccs3)C(=O)O2)cc1` [F142, 2-(4-Butoxyphenyl)-4-(thiophen-2-ylmethylene)oxazol-5 (4H)-one], for which the inhibition at 30 µM (CHO-K1, 30 μM) was found to be 2.4%.
For the compound `CC(C)c1ccc(C2=NC(=Cc3ccc[nH]3)C(=O)O2)cc1` [F12, 4-((1H-pyrrol-2-yl)methylene)-2-(4-isopropylphenyl)oxazol-5(4H)-one], the IC50 amounted to 1 ± 0.15 µM. The inhibition at 30 µM (CHO-K1, 30 μM) turned out to be 100%.
Consider `O=C1OC(c2ccc3ccccc3c2)=NC1=Cc1cnn(Cc2ccccc2Cl)c1` [F123, 4-((1-(2-Chlorobenzyl)-1H-pyrazol-4-yl)methylene)-2-(naphthalen-2-yl)oxazol-5 (4H)-one], for which, for the setting “CHO-K1, 30 μM”, the inhibition at 30 µM was determined as 2.4%.
In the case of `CC(=O)Nc1ccc(C2=NC(=Cc3cccs3)C(=O)O2)cc1` [F33, N-(4-(5-oxo-4-(thiophen-2-ylmethylene)-4,5-dihydrooxazol-2-yl)phenyl)acetamide], the IC50 turned out to be 9.3 ± 0.68 µM. Moreover, the inhibition at 30 µM (CHO-K1, 30 μM) came to 88.7%.
With `COc1ccc(C2=NC(=Cc3cccs3)C(=O)O2)cc1` [F87, 2-(4-Methoxyphenyl)-4-(thiophen-2-ylmethylene)oxazol-5 (4H)-one], the inhibition at 30 µM (CHO-K1, 30 μM) came to 3.6%.
Take `CCCCOc1ccc(C2=NC(=Cc3ccc[nH]3)C(=O)O2)cc1` [F138, 4-((1H-pyrrol-2-yl)methylene)-2-(4-butoxyphenyl)oxazol-5 (4H)-one]: the inhibition at 30 µM (CHO-K1, 30 μM) stood at 2.7%.
The same measure, in the same setting: with `CCCCc1ccc(C(=O)NC(=Cc2ccc[nH]2)C(=O)OC)cc1` [G11, Methyl 2-(4-butylbenzamido)-3-(1H-pyrrol-2-yl)acrylate] the figure was 3.5%; with `COC(=O)C(=Cc1ccc[nH]1)NC(=O)c1ccc(C(C)(C)C)cc1` [G1, Methyl 2-(4-(tert-butyl)benzamido)-3-(1H-pyrrol-2-yl)acrylate], 2.9%; with `CC(C)c1ccc(C2=NC(=Cc3csc4ccccc34)C(=O)O2)cc1` [F16, 4-(Benzo[b]thiophen-3-ylmethylene)-2-(4-isopropylphenyl)oxazol-5(4H)-one], 3.1%.
As for `CCCc1ccc(C(=O)NC(=Cc2ccco2)C(=O)O)cc1` [G34, 3-(Furan-2-yl)-2-(4-propylbenzamido)acrylate], the inhibition at 30 µM (CHO-K1, 30 μM) came to 38.2%.
For `CC(=O)Nc1ccc(C2=NC(=Cc3cc(Br)cs3)C(=O)O2)cc1` [F106, N-(4-(4-((4-bromothiophen-2-yl)methylene)-5-oxo-4,5-dihydrooxazol-2-yl)phenyl)acetamide], the inhibition at 30 µM (CHO-K1, 30 μM) came out at 3.3%.
The same measure, in the same setting: with `COC(=O)C(=Cc1cccn1-c1ccccc1)NC(=O)c1ccc(C(C)(C)C)cc1` [G14, Methyl 2-(4-(tert-butyl)benzamido)-3-(1-phenyl-1H-pyrrol-2-yl)acrylate] the figure was 2.5%.
`COc1ccccc1C1=NC(=Cc2cnn(C)c2)C(=O)O1` [F125, 2-(2-methoxyphenyl)-4-((1-methyl-1H-pyrazol-4-yl)methylene)oxazol-5(4H)-one]: under “CHO-K1, 30 μM”, the inhibition at 30 µM worked out at 1%.

(Values after patent US12691101B2, “Compound and method for preventing or treating of respiratory diseases comprising the same as an active ingredient” (YONSEI UNIVERSITY, UNIVERSITY - INDUSTRY FOUNDATION (UIF), priority 2019, dated 2026).)
